Source: the NIST ThermoML archive (doi:10.1021/je5002686)
Where “and” joins values, the source holds several entries; their conditions need not be identical. Equal entries are not always repeated. ± gives the expanded uncertainty stated by the source.

Settings: Liquid, Vibrating tube method

CCOC(F)(C(F)(F)C(F)(F)C(F)(F)F)C(F)(C(F)(F)F)C(F)(F)F (stereo not given) [2-trifluoromethyl-3-ethoxydodecafluorohexane]
Settings | mass density
350 K, 40000 kPa | 1622.9 ± 1.4 kg/m3 and 1622.8 ± 1.4 kg/m3
350 K, 40010 kPa | 1622.7 ± 1.4 kg/m3
350 K, 44990 kPa | 1632.7 ± 1.5 kg/m3 and 1632.5 ± 1.5 kg/m3
350 K, 45000 kPa | 1632.5 ± 1.5 kg/m3
350 K, 49990 kPa | 1641.9 ± 1.6 kg/m3 and 1641.7 ± 1.6 kg/m3
350 K, 50000 kPa | 1641.8 ± 1.6 kg/m3
370 K, 490 kPa | 1465.7 ± 0.9 kg/m3 and 1465.9 ± 0.9 kg/m3
370 K, 500 kPa | 1466 ± 0.9 kg/m3
370 K, 1000 kPa | 1468.6 ± 0.9 kg/m3 and 1468.4 ± 0.9 kg/m3 and 1468.5 ± 0.9 kg/m3
370 K, 1990 kPa | 1473.6 ± 0.9 kg/m3 and 1473.5 ± 0.9 kg/m3
370 K, 2000 kPa | 1473.4 ± 0.9 kg/m3
370 K, 2990 kPa | 1478.5 ± 0.9 kg/m3
370 K, 3000 kPa | 1478.2 ± 0.9 kg/m3 and 1478.5 ± 0.9 kg/m3
370 K, 3990 kPa | 1483.1 ± 0.9 kg/m3
370 K, 4000 kPa | 1483.1 ± 0.9 kg/m3 and 1483 ± 0.9 kg/m3
370 K, 4990 kPa | 1487.6 ± 0.9 kg/m3
370 K, 5000 kPa | 1487.5 ± 0.9 kg/m3 and 1487.6 ± 0.9 kg/m3
370 K, 10000 kPa | 1508.2 ± 0.9 kg/m3 and 1507.9 ± 0.9 kg/m3 and 1508.1 ± 0.9 kg/m3
370 K, 14990 kPa | 1526 ± 1 kg/m3 and 1525.8 ± 1 kg/m3
370 K, 19990 kPa | 1541.7 ± 1 kg/m3 and 1541.8 ± 1 kg/m3
370 K, 20000 kPa | 1541.9 ± 1 kg/m3
370 K, 25000 kPa | 1556.3 ± 1.1 kg/m3 and 1556.1 ± 1.1 kg/m3 and 1556.2 ± 1.1 kg/m3
370 K, 30000 kPa | 1569.5 ± 1.2 kg/m3 and 1569.2 ± 1.2 kg/m3 and 1569.4 ± 1.2 kg/m3
370 K, 34990 kPa | 1581.5 ± 1.3 kg/m3
370 K, 35000 kPa | 1581.7 ± 1.3 kg/m3 and 1581.4 ± 1.3 kg/m3
370 K, 40000 kPa | 1593 ± 1.4 kg/m3 and 1592.7 ± 1.4 kg/m3 and 1592.8 ± 1.4 kg/m3
370 K, 45000 kPa | 1603.6 ± 1.5 kg/m3 and 1603.3 ± 1.5 kg/m3 and 1603.4 ± 1.5 kg/m3
370 K, 49990 kPa | 1613.2 ± 1.6 kg/m3 and 1613.4 ± 1.6 kg/m3
370 K, 50020 kPa | 1613.6 ± 1.6 kg/m3
390 K, 490 kPa | 1417.9 ± 0.9 kg/m3
390 K, 500 kPa | 1417.8 ± 0.9 kg/m3 and 1417.7 ± 0.9 kg/m3
390 K, 990 kPa | 1420.9 ± 0.9 kg/m3 and 1421.1 ± 0.9 kg/m3
390 K, 1000 kPa | 1421.1 ± 0.9 kg/m3
390 K, 1990 kPa | 1427.2 ± 0.9 kg/m3 and 1427.4 ± 0.9 kg/m3
390 K, 2000 kPa | 1427.1 ± 0.9 kg/m3
390 K, 3000 kPa | 1433.2 ± 0.9 kg/m3 and 1433.1 ± 0.9 kg/m3
390 K, 3010 kPa | 1433.3 ± 0.9 kg/m3
390 K, 3990 kPa | 1438.8 ± 0.9 kg/m3 and 1438.7 ± 0.9 kg/m3 and 1438.9 ± 0.9 kg/m3
390 K, 5000 kPa | 1444.3 ± 0.9 kg/m3 and 1444.1 ± 0.9 kg/m3 and 1444.4 ± 0.9 kg/m3
390 K, 10000 kPa | 1468.4 ± 0.9 kg/m3 and 1468.3 ± 0.9 kg/m3 and 1468.5 ± 0.9 kg/m3
390 K, 14990 kPa | 1488.9 ± 1 kg/m3 and 1489 ± 1 kg/m3
390 K, 15000 kPa | 1488.9 ± 1 kg/m3
390 K, 19990 kPa | 1506.8 ± 1 kg/m3 and 1507 ± 1 kg/m3
390 K, 20000 kPa | 1507 ± 1 kg/m3
390 K, 25000 kPa | 1523 ± 1.1 kg/m3 and 1522.9 ± 1.1 kg/m3 and 1523.1 ± 1.1 kg/m3
390 K, 29990 kPa | 1537.6 ± 1.2 kg/m3
390 K, 30000 kPa | 1537.6 ± 1.2 kg/m3 and 1537.4 ± 1.2 kg/m3
390 K, 35000 kPa | 1550.9 ± 1.2 kg/m3 and 1550.8 ± 1.2 kg/m3 and 1551 ± 1.3 kg/m3
390 K, 40000 kPa | 1563.2 ± 1.3 kg/m3 and 1563.1 ± 1.3 kg/m3 and 1563.3 ± 1.3 kg/m3
390 K, 44990 kPa | 1574.8 ± 1.4 kg/m3
390 K, 45000 kPa | 1574.7 ± 1.4 kg/m3 and 1574.6 ± 1.4 kg/m3
390 K, 49980 kPa | 1585.3 ± 1.5 kg/m3
390 K, 49990 kPa | 1585.5 ± 1.5 kg/m3
410 K, 990 kPa | 1370.5 ± 0.9 kg/m3
410 K, 3990 kPa | 1392.5 ± 0.9 kg/m3
410 K, 4000 kPa | 1392.7 ± 0.9 kg/m3
410 K, 4990 kPa | 1399.3 ± 0.9 kg/m3
410 K, 10000 kPa | 1427.9 ± 0.9 kg/m3
410 K, 15000 kPa | 1451.6 ± 0.9 kg/m3 and 1451.5 ± 0.9 kg/m3
410 K, 19990 kPa | 1471.8 ± 1 kg/m3
410 K, 20000 kPa | 1472 ± 1 kg/m3
410 K, 24990 kPa | 1489.9 ± 1.1 kg/m3 and 1489.7 ± 1.1 kg/m3
410 K, 29990 kPa | 1506 ± 1.1 kg/m3
410 K, 30000 kPa | 1505.8 ± 1.1 kg/m3
410 K, 34990 kPa | 1520.6 ± 1.2 kg/m3
410 K, 35000 kPa | 1520.5 ± 1.2 kg/m3
410 K, 40000 kPa | 1534 ± 1.3 kg/m3 and 1533.9 ± 1.3 kg/m3
410 K, 45000 kPa | 1546.4 ± 1.4 kg/m3
410 K, 45010 kPa | 1546.3 ± 1.4 kg/m3
410 K, 50000 kPa | 1558 ± 1.5 kg/m3
410 K, 50020 kPa | 1557.9 ± 1.5 kg/m3
430 K, 500 kPa | 1310.6 ± 0.9 kg/m3 and 1310.4 ± 0.9 kg/m3
430 K, 1000 kPa | 1316.1 ± 0.9 kg/m3 and 1315.9 ± 0.9 kg/m3 and 1316.2 ± 0.9 kg/m3
430 K, 2000 kPa | 1326.2 ± 0.9 kg/m3 and 1326 ± 0.9 kg/m3 and 1326.3 ± 0.9 kg/m3
430 K, 3000 kPa | 1335.6 ± 0.9 kg/m3 and 1335.4 ± 0.9 kg/m3 and 1335.7 ± 0.9 kg/m3
430 K, 4000 kPa | 1344.3 ± 0.9 kg/m3 and 1344.1 ± 0.9 kg/m3
430 K, 4990 kPa | 1352.1 ± 0.9 kg/m3 and 1352.4 ± 0.9 kg/m3
430 K, 5000 kPa | 1352.4 ± 0.9 kg/m3
430 K, 9990 kPa | 1386.6 ± 0.9 kg/m3 and 1386.4 ± 0.9 kg/m3
430 K, 14990 kPa | 1413.9 ± 0.9 kg/m3
430 K, 15000 kPa | 1413.8 ± 0.9 kg/m3 and 1414 ± 0.9 kg/m3
430 K, 19990 kPa | 1436.8 ± 1 kg/m3 and 1437 ± 1 kg/m3
430 K, 20000 kPa | 1436.9 ± 1 kg/m3
430 K, 24990 kPa | 1456.9 ± 1 kg/m3
430 K, 25000 kPa | 1456.9 ± 1 kg/m3 and 1456.8 ± 1 kg/m3
430 K, 29990 kPa | 1474.6 ± 1.1 kg/m3
430 K, 30000 kPa | 1474.7 ± 1.1 kg/m3
430 K, 30010 kPa | 1474.5 ± 1.1 kg/m3
430 K, 34990 kPa | 1490.4 ± 1.2 kg/m3
430 K, 35000 kPa | 1490.6 ± 1.2 kg/m3
430 K, 40000 kPa | 1505.2 ± 1.3 kg/m3 and 1505 ± 1.3 kg/m3
430 K, 40010 kPa | 1505.2 ± 1.3 kg/m3
430 K, 45000 kPa | 1518.6 ± 1.4 kg/m3 and 1518.4 ± 1.4 kg/m3
430 K, 49960 kPa | 1530.9 ± 1.4 kg/m3
430 K, 49990 kPa | 1531 ± 1.4 kg/m3
430 K, 50000 kPa | 1530.9 ± 1.4 kg/m3
450 K, 1990 kPa | 1269.4 ± 0.9 kg/m3
450 K, 3980 kPa | 1292.6 ± 0.9 kg/m3
450 K, 4000 kPa | 1292.9 ± 0.9 kg/m3
450 K, 4990 kPa | 1302.9 ± 0.9 kg/m3 and 1303 ± 0.9 kg/m3
450 K, 10000 kPa | 1344.2 ± 0.9 kg/m3 and 1344.1 ± 0.9 kg/m3 and 1344.3 ± 0.9 kg/m3
450 K, 14980 kPa | 1375.6 ± 0.9 kg/m3
450 K, 14990 kPa | 1375.9 ± 0.9 kg/m3
450 K, 15000 kPa | 1375.9 ± 0.9 kg/m3
450 K, 19990 kPa | 1401.9 ± 1 kg/m3 and 1401.7 ± 1 kg/m3
450 K, 25000 kPa | 1424.1 ± 1 kg/m3 and 1424 ± 1 kg/m3
450 K, 29990 kPa | 1443.6 ± 1.1 kg/m3 and 1443.4 ± 1.1 kg/m3
450 K, 30000 kPa | 1443.6 ± 1.1 kg/m3
450 K, 34990 kPa | 1460.8 ± 1.1 kg/m3 and 1461 ± 1.1 kg/m3
450 K, 35000 kPa | 1461 ± 1.1 kg/m3
450 K, 39990 kPa | 1476.8 ± 1.2 kg/m3
450 K, 40000 kPa | 1476.6 ± 1.2 kg/m3 and 1476.8 ± 1.2 kg/m3
450 K, 45000 kPa | 1491.2 ± 1.3 kg/m3 and 1491.1 ± 1.3 kg/m3
450 K, 49980 kPa | 1504.5 ± 1.4 kg/m3
450 K, 49990 kPa | 1504.5 ± 1.4 kg/m3
450 K, 50000 kPa | 1504.4 ± 1.4 kg/m3
470 K, 5010 kPa | 1250.5 ± 0.9 kg/m3
470 K, 9990 kPa | 1300.6 ± 0.9 kg/m3 and 1300.8 ± 0.9 kg/m3
470 K, 10010 kPa | 1300.7 ± 0.9 kg/m3
470 K, 14990 kPa | 1337.3 ± 0.9 kg/m3
470 K, 15000 kPa | 1337.3 ± 0.9 kg/m3 and 1337.5 ± 0.9 kg/m3
470 K, 19990 kPa | 1366.6 ± 0.9 kg/m3
470 K, 20000 kPa | 1366.7 ± 0.9 kg/m3 and 1366.9 ± 0.9 kg/m3
470 K, 25000 kPa | 1391.4 ± 1 kg/m3 and 1391.3 ± 1 kg/m3 and 1391.5 ± 1 kg/m3
470 K, 29990 kPa | 1412.7 ± 1.1 kg/m3
470 K, 30000 kPa | 1412.8 ± 1.1 kg/m3 and 1412.9 ± 1.1 kg/m3
470 K, 34990 kPa | 1431.7 ± 1.1 kg/m3 and 1431.8 ± 1.1 kg/m3
470 K, 35010 kPa | 1431.7 ± 1.1 kg/m3
470 K, 39990 kPa | 1448.8 ± 1.2 kg/m3
470 K, 40000 kPa | 1448.7 ± 1.2 kg/m3
470 K, 44990 kPa | 1464.2 ± 1.3 kg/m3 and 1464.1 ± 1.3 kg/m3
470 K, 45000 kPa | 1464.3 ± 1.3 kg/m3
470 K, 49990 kPa | 1478.4 ± 1.4 kg/m3
470 K, 50000 kPa | 1478.6 ± 1.4 kg/m3
470 K, 50010 kPa | 1478.5 ± 1.4 kg/m3
